# “And” between values parts separate entries of the source, which are not always exact repeats. Equal values may be shown once.
# Experiments:
# Test in all cases: radiometric filter-binding kinase assay, Kinaseprofiler
# [1] = target: ULK3 (human) (UniProt Q6PHR2); settings: ATP 10 µM
# [2] = target: TSSK2 (human) (UniProt Q96PF2); settings: ATP 15 µM
# [3] = target: LCK (human) (UniProt P06239); settings: compound 1.0 µM; ATP 90 µM
# [4] = target: NEK3 (human) (UniProt P51956); settings: ATP 120 µM
# [5] = target: MAPK1 (human) (UniProt P28482); settings: ATP 155 µM
# [6] = target: STK33 (human) (UniProt Q9BYT3); settings: ATP 155 µM
# Chain of STK33 (human) (Q9BYT3 whole entry, looked up): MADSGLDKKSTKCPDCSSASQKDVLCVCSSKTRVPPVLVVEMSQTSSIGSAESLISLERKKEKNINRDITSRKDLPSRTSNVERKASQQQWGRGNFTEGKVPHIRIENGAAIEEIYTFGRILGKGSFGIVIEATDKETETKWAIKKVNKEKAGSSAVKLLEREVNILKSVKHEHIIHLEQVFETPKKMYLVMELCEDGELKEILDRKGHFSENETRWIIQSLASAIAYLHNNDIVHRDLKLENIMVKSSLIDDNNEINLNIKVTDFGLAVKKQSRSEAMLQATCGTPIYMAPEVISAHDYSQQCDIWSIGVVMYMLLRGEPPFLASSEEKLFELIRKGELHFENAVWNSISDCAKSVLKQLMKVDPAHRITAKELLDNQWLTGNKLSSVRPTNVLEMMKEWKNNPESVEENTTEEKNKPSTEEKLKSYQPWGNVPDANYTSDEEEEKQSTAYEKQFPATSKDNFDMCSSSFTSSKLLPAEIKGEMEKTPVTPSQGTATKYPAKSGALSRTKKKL
# [7] = target: INSRR (human) (UniProt P14616); settings: ATP 200 µM
# [8] = target: PDGFRB (human) (UniProt P09619); settings: ATP 200 µM
# [9] = target: PDPK1 (human) (UniProt O15530); settings: ATP 10 µM
# [10] = target: MARK2 (human) (UniProt Q7KZI7); settings: ATP 15 µM
# [11] = target: EPHA8 (human) (UniProt P29322); settings: ATP 200 µM
# Chain of EPHA8 (human) (P29322 whole entry, looked up): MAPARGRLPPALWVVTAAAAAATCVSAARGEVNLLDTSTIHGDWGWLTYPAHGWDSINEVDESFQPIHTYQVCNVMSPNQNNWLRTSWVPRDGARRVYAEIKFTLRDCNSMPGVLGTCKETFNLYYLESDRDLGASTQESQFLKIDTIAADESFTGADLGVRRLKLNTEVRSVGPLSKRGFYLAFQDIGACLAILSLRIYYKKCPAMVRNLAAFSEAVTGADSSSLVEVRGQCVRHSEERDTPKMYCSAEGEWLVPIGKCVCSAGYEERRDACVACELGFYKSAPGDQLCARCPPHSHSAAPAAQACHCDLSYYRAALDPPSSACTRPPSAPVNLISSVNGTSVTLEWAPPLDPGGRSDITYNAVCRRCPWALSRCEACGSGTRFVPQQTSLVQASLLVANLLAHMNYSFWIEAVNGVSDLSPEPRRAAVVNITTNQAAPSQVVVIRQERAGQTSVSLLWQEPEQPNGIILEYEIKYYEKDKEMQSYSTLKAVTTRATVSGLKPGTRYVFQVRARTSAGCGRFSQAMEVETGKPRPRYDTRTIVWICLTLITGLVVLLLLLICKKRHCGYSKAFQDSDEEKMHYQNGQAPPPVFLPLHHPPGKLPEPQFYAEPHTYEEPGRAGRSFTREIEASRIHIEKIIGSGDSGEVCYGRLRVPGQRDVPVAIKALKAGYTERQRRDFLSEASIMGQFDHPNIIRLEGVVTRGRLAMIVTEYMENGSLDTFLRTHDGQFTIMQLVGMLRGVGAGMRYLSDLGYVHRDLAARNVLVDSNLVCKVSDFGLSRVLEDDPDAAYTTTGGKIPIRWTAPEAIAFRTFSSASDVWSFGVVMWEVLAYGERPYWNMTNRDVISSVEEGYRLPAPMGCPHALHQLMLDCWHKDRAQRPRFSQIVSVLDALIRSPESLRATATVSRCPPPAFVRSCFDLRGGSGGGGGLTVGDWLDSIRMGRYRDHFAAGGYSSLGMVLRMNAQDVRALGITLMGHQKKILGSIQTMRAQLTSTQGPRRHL
# [12] = target: CSK (human) (UniProt P41240); settings: ATP 15 µM
# [13] = target: GRK6 (human) (UniProt P43250); settings: ATP 45 µM
# [14] = target: JAK2 JH1 catalytic (human) (UniProt O60674); settings: ATP 45 µM
# [15] = target: PRKCE (human) (UniProt Q02156); settings: ATP 45 µM
# [16] = target: NEK11 (human) (UniProt Q8NG66); settings: ATP 200 µM
# [17] = target: PTK2B (human) (UniProt Q14289); settings: ATP 90 µM
# Chain of PTK2B (human) (Q14289 whole entry, looked up): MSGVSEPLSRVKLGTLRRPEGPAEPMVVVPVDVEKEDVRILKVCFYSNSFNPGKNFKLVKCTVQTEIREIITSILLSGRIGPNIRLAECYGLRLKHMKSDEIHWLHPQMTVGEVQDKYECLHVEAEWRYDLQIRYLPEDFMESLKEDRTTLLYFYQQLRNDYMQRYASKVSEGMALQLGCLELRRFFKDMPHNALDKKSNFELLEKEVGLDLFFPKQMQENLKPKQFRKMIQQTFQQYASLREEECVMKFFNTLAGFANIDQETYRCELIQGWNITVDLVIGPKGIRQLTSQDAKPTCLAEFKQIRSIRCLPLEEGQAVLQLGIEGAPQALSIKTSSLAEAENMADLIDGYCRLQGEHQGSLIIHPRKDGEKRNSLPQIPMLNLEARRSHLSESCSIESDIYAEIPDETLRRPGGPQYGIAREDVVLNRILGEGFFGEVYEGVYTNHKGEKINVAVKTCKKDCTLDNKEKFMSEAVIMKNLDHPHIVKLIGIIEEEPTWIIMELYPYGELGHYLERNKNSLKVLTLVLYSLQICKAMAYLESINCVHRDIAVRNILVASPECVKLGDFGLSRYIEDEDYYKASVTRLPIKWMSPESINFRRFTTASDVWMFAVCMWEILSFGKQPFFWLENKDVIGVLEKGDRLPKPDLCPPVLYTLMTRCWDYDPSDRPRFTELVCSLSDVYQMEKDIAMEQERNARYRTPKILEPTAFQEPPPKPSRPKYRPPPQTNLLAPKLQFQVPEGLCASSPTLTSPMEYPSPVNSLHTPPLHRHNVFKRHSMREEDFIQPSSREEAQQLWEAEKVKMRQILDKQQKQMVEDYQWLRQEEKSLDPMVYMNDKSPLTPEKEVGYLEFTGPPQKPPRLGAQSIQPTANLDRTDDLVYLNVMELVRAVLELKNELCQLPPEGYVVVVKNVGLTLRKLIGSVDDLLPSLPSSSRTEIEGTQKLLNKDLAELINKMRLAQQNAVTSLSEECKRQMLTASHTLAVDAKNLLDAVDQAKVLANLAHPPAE
# [18] = target: PRKCD (human) (UniProt Q05655); settings: ATP 15 µM
# [19] = target: PRKCA (human) (UniProt P17252); settings: ATP 45 µM
# [20] = target: RPS6KA1 KD1 KD2 (human) (UniProt Q15418); settings: ATP 45 µM
# [21] = target: EPHA5 (human) (UniProt P54756); settings: ATP 10 µM
# [22] = target: FER (human) (UniProt P16591); settings: ATP 70 µM
# [23] = target: KDR (human) (UniProt P35968); settings: ATP 90 µM
# [24] = target: PRKG1 (human) (UniProt Q13976); settings: ATP 90 µM
# Chain of PRKG1 (human) (Q13976 whole entry, looked up): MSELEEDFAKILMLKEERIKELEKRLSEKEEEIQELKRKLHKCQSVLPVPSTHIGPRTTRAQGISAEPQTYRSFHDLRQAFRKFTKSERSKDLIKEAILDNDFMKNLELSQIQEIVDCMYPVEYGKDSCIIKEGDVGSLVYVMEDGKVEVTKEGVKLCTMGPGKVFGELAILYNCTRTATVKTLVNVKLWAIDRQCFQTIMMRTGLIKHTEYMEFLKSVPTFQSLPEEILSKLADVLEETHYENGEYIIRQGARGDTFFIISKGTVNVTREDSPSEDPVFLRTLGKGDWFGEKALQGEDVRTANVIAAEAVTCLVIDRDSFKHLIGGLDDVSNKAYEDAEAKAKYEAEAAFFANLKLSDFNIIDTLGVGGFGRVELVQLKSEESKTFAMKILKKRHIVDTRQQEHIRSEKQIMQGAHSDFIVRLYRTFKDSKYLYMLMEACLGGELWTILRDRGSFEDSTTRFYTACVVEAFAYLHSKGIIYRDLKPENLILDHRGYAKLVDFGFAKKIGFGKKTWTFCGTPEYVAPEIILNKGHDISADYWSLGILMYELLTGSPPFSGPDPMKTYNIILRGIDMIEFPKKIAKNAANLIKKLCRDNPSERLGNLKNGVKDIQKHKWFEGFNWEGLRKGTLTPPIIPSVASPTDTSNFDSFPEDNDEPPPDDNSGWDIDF
# [25] = target: PAK3 (human) (UniProt O75914); settings: ATP 120 µM
# [26] = target: SRPK1 (human) (UniProt Q96SB4); settings: ATP 10 µM
# [27] = target: NLK (human) (UniProt Q9UBE8); settings: ATP 200 µM
# [28] = target: PRKX (human) (UniProt P51817); settings: ATP 200 µM
# [29] = target: PRKCB1 (human) (UniProt P05771); settings: ATP 10 µM
# [30] = tested on: SGK2 (human), Q9HBY8 [S416D]; settings: ATP 15 µM
# Chain of SGK2 (human), Q9HBY8 [S416D] (Q9HBY8 whole entry, looked up, stated change not applied): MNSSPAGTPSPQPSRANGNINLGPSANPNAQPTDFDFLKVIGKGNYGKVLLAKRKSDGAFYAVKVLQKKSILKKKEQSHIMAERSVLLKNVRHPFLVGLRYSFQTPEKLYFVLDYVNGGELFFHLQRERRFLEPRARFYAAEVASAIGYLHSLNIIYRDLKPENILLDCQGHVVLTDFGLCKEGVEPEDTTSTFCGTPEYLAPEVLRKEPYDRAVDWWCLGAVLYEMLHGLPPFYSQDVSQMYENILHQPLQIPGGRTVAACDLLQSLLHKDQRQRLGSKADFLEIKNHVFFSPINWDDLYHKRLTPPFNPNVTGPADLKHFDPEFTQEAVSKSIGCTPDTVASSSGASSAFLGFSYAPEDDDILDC
# [31] = target: ALK (human) (UniProt Q9UM73); settings: ATP 200 µM
# [32] = target: PIM3 (human) (UniProt Q86V86); settings: ATP 155 µM
# [33] = target: BRSK1 (human) (UniProt Q8TDC3); settings: ATP 200 µM
# Chain of BRSK1 (human) (Q8TDC3 whole entry, looked up): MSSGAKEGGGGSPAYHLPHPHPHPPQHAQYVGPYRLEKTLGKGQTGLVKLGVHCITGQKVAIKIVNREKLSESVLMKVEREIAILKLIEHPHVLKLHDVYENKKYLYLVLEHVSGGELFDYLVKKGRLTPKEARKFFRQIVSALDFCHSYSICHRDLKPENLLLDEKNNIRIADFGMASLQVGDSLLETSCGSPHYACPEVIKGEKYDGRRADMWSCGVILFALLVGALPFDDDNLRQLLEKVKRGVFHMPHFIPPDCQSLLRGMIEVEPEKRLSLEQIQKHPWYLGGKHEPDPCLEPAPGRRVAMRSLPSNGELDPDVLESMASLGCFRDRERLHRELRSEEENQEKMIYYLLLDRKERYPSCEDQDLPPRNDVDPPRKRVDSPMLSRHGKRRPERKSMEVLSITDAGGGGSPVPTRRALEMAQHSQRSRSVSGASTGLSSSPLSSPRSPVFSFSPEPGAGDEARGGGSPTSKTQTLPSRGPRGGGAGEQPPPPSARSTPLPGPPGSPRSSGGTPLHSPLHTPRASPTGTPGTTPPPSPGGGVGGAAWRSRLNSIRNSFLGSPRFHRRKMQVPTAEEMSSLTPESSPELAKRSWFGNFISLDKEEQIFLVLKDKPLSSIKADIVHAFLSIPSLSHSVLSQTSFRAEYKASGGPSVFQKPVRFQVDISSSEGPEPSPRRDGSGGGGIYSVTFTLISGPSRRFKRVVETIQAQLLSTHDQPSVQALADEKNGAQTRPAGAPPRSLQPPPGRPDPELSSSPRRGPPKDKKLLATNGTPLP
compound,measurement,setting,value
O=C1c2ccccc2-c2n[nH]c3cccc1c23,residual activity,[1]; compound 1.0 µM,73%
same,residual activity,[1]; compound 10.0 µM,43%
same,residual activity,[2]; compound 1.0 µM,92%
same,residual activity,[2]; compound 10.0 µM,86%
same,residual activity,[3],70% and 89%
same,residual activity,[4]; compound 1.0 µM,70%
same,residual activity,[4]; compound 10.0 µM,79%
same,residual activity,[5]; compound 1.0 µM,88%
same,residual activity,[5]; compound 10.0 µM,55%
same,residual activity,[6]; compound 1.0 µM,61%
same,residual activity,[6]; compound 10.0 µM,16%
same,residual activity,[7]; compound 1.0 µM,102%
same,residual activity,[7]; compound 10.0 µM,51%
same,residual activity,[8]; compound 1.0 µM,99%
same,residual activity,[8]; compound 10.0 µM,96%
same,residual activity,[9]; compound 1.0 µM,72%
same,residual activity,[9]; compound 10.0 µM,19%
same,residual activity,[10]; compound 1.0 µM,55%
same,residual activity,[10]; compound 10.0 µM,12%
same,residual activity,[11]; compound 1.0 µM,92%
same,residual activity,[11]; compound 10.0 µM,76%
same,residual activity,[12]; compound 1.0 µM,105%
same,residual activity,[12]; compound 10.0 µM,93%
same,residual activity,[13]; compound 1.0 µM,87%
same,residual activity,[13]; compound 10.0 µM,81%
same,residual activity,[14]; compound 1.0 µM,58%
same,residual activity,[14]; compound 10.0 µM,11%
same,residual activity,[15]; compound 1.0 µM,101%
same,residual activity,[15]; compound 10.0 µM,84%
same,residual activity,[16]; compound 1.0 µM,50%
same,residual activity,[16]; compound 10.0 µM,47%
same,residual activity,[17]; compound 1.0 µM,68%
same,residual activity,[17]; compound 10.0 µM,23%
same,residual activity,[18]; compound 1.0 µM,99%
same,residual activity,[18]; compound 10.0 µM,71%
same,residual activity,[19]; compound 1.0 µM,98%
same,residual activity,[19]; compound 10.0 µM,73%
same,residual activity,[20]; compound 1.0 µM,86%
same,residual activity,[20]; compound 10.0 µM,64%
same,residual activity,[21]; compound 1.0 µM,115%
same,residual activity,[21]; compound 10.0 µM,63%
same,residual activity,[22]; compound 1.0 µM,75%
same,residual activity,[22]; compound 10.0 µM,51%
same,residual activity,[23]; compound 1.0 µM,17%
same,residual activity,[23]; compound 10.0 µM,3%
same,residual activity,[24]; compound 1.0 µM,90% and 79%
same,residual activity,[24]; compound 10.0 µM,60% and 79%
same,residual activity,[25]; compound 1.0 µM,85%
same,residual activity,[25]; compound 10.0 µM,96%
same,residual activity,[26]; compound 1.0 µM,98%
same,residual activity,[26]; compound 10.0 µM,87%
same,residual activity,[27]; compound 1.0 µM,78%
same,residual activity,[27]; compound 10.0 µM,71%
same,residual activity,[28]; compound 1.0 µM,86%
same,residual activity,[28]; compound 10.0 µM,70%
same,residual activity,[29]; compound 1.0 µM,102%
same,residual activity,[29]; compound 10.0 µM,104%
same,residual activity,[30]; compound 1.0 µM,71%
same,residual activity,[30]; compound 10.0 µM,33%
same,residual activity,[31]; compound 1.0 µM,61%
same,residual activity,[31]; compound 10.0 µM,29%
same,residual activity,[32]; compound 1.0 µM,75%
same,residual activity,[32]; compound 10.0 µM,59%
same,residual activity,[33]; compound 1.0 µM,38%
same,residual activity,[33]; compound 10.0 µM,29%

# — the kinase profiling compilation of Christmann-Franck et al. (2016)
